Assay results reported in article PMC10146558, “Highly Cytotoxic Copper(II) Mixed-Ligand Quinolinonato Complexes: Pharmacokinetic Properties and Interactions with Drug Metabolizing Cytochromes P450” (Pharmaceutics, 2023).
Where “and” joins values, the source holds several entries; their conditions need not be identical. Equal values may be shown once.

Legend:
[1] = Microsomal stability assay; type: in vitro ADME; settings: human liver microsomes, NADPH-generating system, 5.74 μM
Procedure: Pharmacological properties of the complexes 1 and 2, including stability in plasma, microsomal stability, binding to plasma proteins, and permeability through an artificial membrane, were tested under in vitro conditions and according to methods described in previous reports. Analysis of the samples was performed using Agilent RapidFire 300 High-Throughput Mass Spectrometry System (Agilent Technologies, Wakefield, MA, USA) with subsequent detection using the mass spectrometer Qtrap 5500 (AB Sciex, Concord, Toronto, ON, Canada), abbreviation RF-MS. The samples were aspirated directly from the plates into a 10 μL sample loop and passed through a C4 cartridge with solvent A (5% acetonitrile, 95% water, 0.1% formic acid) at a flow rate of 1.5 mL/min for 3 s. After the desalting step, analytes retained on the cartridge were eluted with solvent B (95% acetonitrile, 5% water, 0.1% formic acid) in the mass spectrometer at a flow rate of 0.4 mL/min for 5 s. The mass spectrometry of the samples was carried out using electrospray ionisation in the positive ion mode. Daughter ion peaks were identified using a multiple-reaction monitoring protocol.
According to the protocol, reaction mixtures included tested compound (5.74 μM), human liver microsomes, NADPH-generating system consisting of NADP^+, isocitrate dehydrogenase, isocitric acid, and MgSO4 in 100 mM K/PO4 buffer. Assay was performed at 0, 15, 30, and 60 min. Reactions were terminated using acetonitrile–methanol (2:1) mixture. After centrifugation, the supernatant was lyophilized and analysed by RF-MS. The values of intrinsic clearance were calculated using the formula: CLint = 0.693/t1/2/mg microsome protein per mL of reaction.

CYP2C9 = target: T1, CYP2C9 (Homo sapiens, UniProt P11712); assay: CYP2C9 activity (diclofenac 4′-hydroxylation) in human liver microsomes; type: biochemical; settings: for Type of inhibition, CYP2C9 / Ki: Dixon and Lineweaver–Burk plots; for Ki: substrate ½ Km to 4 Km; for IC50: human liver microsomes, diclofenac 4′-hydroxylation
T1 construct: Cryopreserved pooled human liver microsomes were obtained from Xenotech; tissue Xenotech (Lenexa, KS, USA); host or cells: pooled human liver microsomes
Procedure: (§2) For each enzyme assay, the preliminary experiments to determine Michaelis constant (Km) and limiting velocity (Vmax) were performed to calculate the time of incubation (the specified time for which the reaction is still linear) and the values of substrate concentration (in the range corresponding to the value of Km).
(§3) The reaction mixtures were buffered by 0.1 M potassium phosphate buffer (pH 7.4) and contained a NADPH-generating system consisting of the isocitrate dehydrogenase (6 U/mL), NADP^+ (0.5 mM), isocitric acid (4 mM), and MgSO4 (5 mM). The final concentration levels of complexes were obtained by diluting a 10 mM solution with dimethyl sulfoxide (DMSO). It is known that DMSO can in some cases inhibit P450; the following measures were thus applied: (a) control samples containing organic solvent without the tested compounds were prepared and used as references; (b) DMSO levels were maintained below 0.1% to minimise the inhibition. Inhibition experiments were performed using five concentration levels of the tested compounds in the range of 10–100 µM. The maximum concentration was chosen so that in the case of inhibition, it would be possible to determine the inhibitory effect of the complexes and characterise them by determining the IC50 value. Additionally, an inhibitor-free control was used as a reference. Incubations were executed in two independent batches, and the samples were prepared and measured in triplicate at 37 °C. Analyses of the metabolites formed from the specific substrates were performed by HPLC using the Prominence system (Shimadzu, Kyoto, Japan) equipped with a LiChroCART 250-4 LiChrospher 100 RP-18 column, Chromolith® HighResolution RP-18 end-capped column (Merck, Darmstadt, Germany), or Kinetex Biphenyl column (Phenomenex, Torrace, CA, USA).
(§4) The apparent Ki values were determined by additional measurements using substrate concentrations corresponding to 1/2 Km, Km, 2 Km, and 4 Km in the case of inhibition. The type of model was selected on the basis of the Lineweaver–Burk and Dixon plots. The values of IC50 were obtained by analysing the plot of the percentage of activity remaining after inhibition versus the logarithm of the inhibitor concentration using the GraphPad Prism 6 software (La Jolla, CA, USA).

human bactosomes CYP1A2 = target: T2, human bactosomes CYP1A2 (Homo sapiens, UniProt P05177); assay: Isothermal titration calorimetry, bactosomes CYP1A2; type: binding; settings: 25 °C, 100 mM phosphate buffer pH 7.4, 1% DMSO
T2 construct: purchased BD Biosciences (Franklin Lakes, NJ, USA); host or cells: bacterial membranes ('bactosomes')
T2 sequence (P05177 1-516): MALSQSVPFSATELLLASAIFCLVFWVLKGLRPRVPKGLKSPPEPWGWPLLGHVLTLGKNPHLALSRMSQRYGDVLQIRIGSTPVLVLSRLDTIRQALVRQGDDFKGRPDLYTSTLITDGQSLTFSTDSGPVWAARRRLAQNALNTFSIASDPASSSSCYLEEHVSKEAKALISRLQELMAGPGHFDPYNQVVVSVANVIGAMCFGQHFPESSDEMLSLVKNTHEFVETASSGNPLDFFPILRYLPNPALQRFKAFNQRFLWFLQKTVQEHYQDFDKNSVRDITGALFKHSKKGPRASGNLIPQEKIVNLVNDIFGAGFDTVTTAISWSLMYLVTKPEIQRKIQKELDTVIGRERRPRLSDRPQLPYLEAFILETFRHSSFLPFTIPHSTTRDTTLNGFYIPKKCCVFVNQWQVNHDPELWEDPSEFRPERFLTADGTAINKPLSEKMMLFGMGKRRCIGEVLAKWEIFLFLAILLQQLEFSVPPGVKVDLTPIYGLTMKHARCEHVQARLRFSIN
Procedure: (§1) The interactions of the compounds with selected forms of cytochrome P450, i.e., human bactosomes CYP1A2, CYP2A6, CYP3A4, and recombinant human CYP3A4, were studied using isothermal titration calorimetry (ITC). ITC experiments were performed at 25 °C with a Nano ITC Low Volume (TA Instruments, New Castle, DE, USA). During all measurements, 20 injections of 16µM of the studied compound (2.5 µL each) were titrated into 250 µL of protein (2 µM) with time intervals of 300 s and a stirring speed of 250 rpm. All ITC experiments were conducted with degassed buffered solutions (100 mM phosphate buffer, pH 7.4) in the presence of 1% DMSO. Control experiments included the titration of each complex solution into a buffer. The corrected data refer to experimental data after subtraction of the buffer control data from the compounds data. The resulting thermograms were analysed using the “Independent” model within the NanoAnalyze software (TA Instruments, New Castle, DE, USA).

human bactosomes CYP2A6 = target: T3, human bactosomes CYP2A6 (Homo sapiens, UniProt P11509); assay: Isothermal titration calorimetry, bactosomes CYP2A6; type: binding; settings: 25 °C; for n, CYP2A6B: ITC stoichiometry, pH 7.4; for Ka, CYP2A6B / ΔG, CYP2A6B / ΔH, CYP2A6B / ΔS, CYP2A6B / Kd: ITC, pH 7.4, 1% DMSO; for Kd: read-out: Kd, CYP2A6B
T3 construct: purchased BD Biosciences (Franklin Lakes, NJ, USA); host or cells: bacterial membranes ('bactosomes')
T3 sequence (P11509 1-494): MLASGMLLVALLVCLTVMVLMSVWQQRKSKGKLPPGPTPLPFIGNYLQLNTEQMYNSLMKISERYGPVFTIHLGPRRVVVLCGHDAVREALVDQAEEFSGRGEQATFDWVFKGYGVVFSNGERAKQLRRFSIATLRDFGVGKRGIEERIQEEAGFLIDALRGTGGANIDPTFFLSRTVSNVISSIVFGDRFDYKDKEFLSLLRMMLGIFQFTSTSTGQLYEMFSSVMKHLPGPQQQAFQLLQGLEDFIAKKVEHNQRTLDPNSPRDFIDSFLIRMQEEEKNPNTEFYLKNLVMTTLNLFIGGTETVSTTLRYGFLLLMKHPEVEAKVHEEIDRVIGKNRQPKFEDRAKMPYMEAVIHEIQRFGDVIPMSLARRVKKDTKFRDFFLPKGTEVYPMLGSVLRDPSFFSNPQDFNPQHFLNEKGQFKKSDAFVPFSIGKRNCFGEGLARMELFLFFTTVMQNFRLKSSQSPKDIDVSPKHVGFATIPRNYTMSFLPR
Procedure: as §1

human bactosomes CYP3A4 = target: T4, human bactosomes CYP3A4 (Homo sapiens, UniProt P08684); assay: Isothermal titration calorimetry, bactosomes CYP3A4; type: binding; settings: 25 °C; for n, CYP3A4B: ITC stoichiometry, pH 7.4; for Ka, CYP3A4B / ΔG, CYP3A4B / ΔH, CYP3A4B / ΔS, CYP3A4B / Kd: ITC, pH 7.4, 1% DMSO; for Kd: read-out: Kd, CYP3A4B
T4 construct: purchased Cypex (Dundee, UK); host or cells: bacterial membranes ('bactosomes')
Procedure: as §1

CYP3A4 = CYP3A4 (Homo sapiens, UniProt P08684); assay: CYP3A4 activity (midazolam 1′-hydroxylation) in human liver microsomes; settings: read-out: IC50 CYP3A4 (midazolam 1′-hydroxylation assay); human liver microsomes
Procedure: as §2, §3, §4

CYP3A4/5 = CYP3A4/5 activity (testosterone 6β-hydroxylation) in human liver microsomes; settings: for Type of inhibition, CYP3A4/5 (testosterone 6β-hydroxylation) / Ki: Dixon and Lineweaver–Burk plots; for IC50: read-out: IC50 CYP3A4/5 (testosterone 6β-hydroxylation assay), human liver microsomes; for Ki: read-out: Ki CYP3A4/5 (testosterone 6β-hydroxylation assay), substrate ½ Km to 4 Km
Procedure: For each enzyme assay, the preliminary experiments to determine Michaelis constant (Km) and limiting velocity (Vmax) were performed to calculate the time of incubation (the specified time for which the reaction is still linear) and the values of substrate concentration (in the range corresponding to the value of Km). The amount of human liver microsomes (HLM; expressed as the amount of CYP in pmol and the concentration of HLM protein in mg/mL in the reaction vessel) in the reaction was determined using previously established protocols [40].
The reaction mixtures were buffered by 0.1 M potassium phosphate buffer (pH 7.4) and contained a NADPH-generating system consisting of the isocitrate dehydrogenase (6 U/mL), NADP^+ (0.5 mM), isocitric acid (4 mM), and MgSO4 (5 mM). The final concentration levels of complexes were obtained by diluting a 10 mM solution with dimethyl sulfoxide (DMSO). It is known that DMSO can in some cases inhibit P450; the following measures were thus applied: (a) control samples containing organic solvent without the tested compounds were prepared and used as references; (b) DMSO levels were maintained below 0.1% to minimise the inhibition. Inhibition experiments were performed using five concentration levels of the tested compounds in the range of 10–100 µM. The maximum concentration was chosen so that in the case of inhibition, it would be possible to determine the inhibitory effect of the complexes and characterise them by determining the IC50 value. Additionally, an inhibitor-free control was used as a reference. Incubations were executed in two independent batches, and the samples were prepared and measured in triplicate at 37 °C.
The type of model was selected on the basis of the Lineweaver–Burk and Dixon plots. The values of IC50 were obtained by analysing the plot of the percentage of activity remaining after inhibition versus the logarithm of the inhibitor concentration using the GraphPad Prism 6 software (La Jolla, CA, USA).

T4 sequence (P08684 whole entry): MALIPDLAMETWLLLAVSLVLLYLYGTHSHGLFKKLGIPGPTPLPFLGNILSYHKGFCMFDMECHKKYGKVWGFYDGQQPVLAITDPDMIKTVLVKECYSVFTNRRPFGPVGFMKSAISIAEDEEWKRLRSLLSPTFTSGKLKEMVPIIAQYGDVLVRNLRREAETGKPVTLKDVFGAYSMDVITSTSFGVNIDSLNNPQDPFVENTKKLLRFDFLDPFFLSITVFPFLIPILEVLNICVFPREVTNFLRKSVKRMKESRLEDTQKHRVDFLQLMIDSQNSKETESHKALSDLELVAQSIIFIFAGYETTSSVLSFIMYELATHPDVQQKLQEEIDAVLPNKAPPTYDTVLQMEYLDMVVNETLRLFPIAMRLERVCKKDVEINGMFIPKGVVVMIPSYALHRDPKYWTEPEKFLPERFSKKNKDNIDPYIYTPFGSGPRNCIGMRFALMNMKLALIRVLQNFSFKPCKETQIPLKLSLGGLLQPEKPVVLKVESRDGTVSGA
T1 sequence (P11712 whole entry): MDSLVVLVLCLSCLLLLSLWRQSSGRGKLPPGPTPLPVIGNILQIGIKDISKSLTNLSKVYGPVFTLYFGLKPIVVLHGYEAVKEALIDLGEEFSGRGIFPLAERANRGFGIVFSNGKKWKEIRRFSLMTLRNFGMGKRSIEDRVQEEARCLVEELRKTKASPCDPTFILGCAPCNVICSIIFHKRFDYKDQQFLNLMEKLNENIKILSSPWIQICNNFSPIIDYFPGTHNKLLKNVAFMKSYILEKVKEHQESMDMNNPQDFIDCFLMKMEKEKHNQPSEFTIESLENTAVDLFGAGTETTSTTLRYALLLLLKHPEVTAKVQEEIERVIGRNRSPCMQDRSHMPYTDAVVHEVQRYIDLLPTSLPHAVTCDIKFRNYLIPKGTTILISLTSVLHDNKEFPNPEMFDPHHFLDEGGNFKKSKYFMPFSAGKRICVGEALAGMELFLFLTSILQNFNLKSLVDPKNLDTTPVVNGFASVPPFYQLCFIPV
CYP3A4, sequence (P08684 2-503): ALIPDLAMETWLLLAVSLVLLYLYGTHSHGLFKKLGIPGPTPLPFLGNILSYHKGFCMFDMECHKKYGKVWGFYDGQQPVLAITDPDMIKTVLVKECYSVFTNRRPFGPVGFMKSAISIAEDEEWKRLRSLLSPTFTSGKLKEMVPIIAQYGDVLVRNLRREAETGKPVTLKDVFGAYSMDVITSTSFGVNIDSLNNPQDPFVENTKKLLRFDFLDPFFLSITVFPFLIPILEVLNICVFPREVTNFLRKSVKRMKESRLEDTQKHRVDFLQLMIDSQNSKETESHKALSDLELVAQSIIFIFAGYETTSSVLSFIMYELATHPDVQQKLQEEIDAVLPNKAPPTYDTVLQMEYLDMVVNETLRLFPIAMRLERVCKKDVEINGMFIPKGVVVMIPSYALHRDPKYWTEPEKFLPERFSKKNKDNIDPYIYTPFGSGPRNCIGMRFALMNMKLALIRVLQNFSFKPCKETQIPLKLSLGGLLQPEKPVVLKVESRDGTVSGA

Row | SMILES | % Compound remaining, Microsomal stability, 15 min [1] [%] | % Compound remaining, Microsomal stability, 30 min [1] [%] | % Compound remaining, Microsomal stability, 60 min [1] | Type of inhibition, CYP2C9 (CYP2C9) | Ki (CYP2C9) [µM] | IC50 (CYP2C9) [µM] | ITC interaction with CYP1A2B (human bactosomes CYP1A2) | n, CYP2A6B (human bactosomes CYP2A6) | Ka, CYP2A6B (human bactosomes CYP2A6) [M⁻¹] | ΔG, CYP2A6B (human bactosomes CYP2A6) | ΔH, CYP2A6B (human bactosomes CYP2A6) [kJ/mol] | ΔS, CYP2A6B (human bactosomes CYP2A6) [J/mol.K] | Kd (human bactosomes CYP2A6) [µM] | n, CYP3A4B (human bactosomes CYP3A4) | Ka, CYP3A4B (human bactosomes CYP3A4) [M⁻¹] | ΔG, CYP3A4B (human bactosomes CYP3A4) | ΔH, CYP3A4B (human bactosomes CYP3A4) [kJ/mol] | ΔS, CYP3A4B (human bactosomes CYP3A4) [J/mol.K] | Kd (human bactosomes CYP3A4) [µM] | IC50 (CYP3A4) [µM] | other results
1 | Cc1cc2cccnc2c2ncccc12.O.O=[N+]([O-])[O-].O=c1c([O-])c(-c2ccccc2)[nH]c2ccccc12.[Cu+2] [complex 1] | 99.4 ± 3.5 | 80.7 ± 2.8 | 78% and 78.1 ± 1.7% | non-competitive | 2.56 ± 0.37 | 16.3 | no interaction | 0.801 | 1.04e+06 | −40,050.9 J/mol | -31.81 | 27.64 | 0.962 | 0.911 | 1.92e+07 | −41,558.7 J/mol | -80.02 | −129 | 0.0521 | 28.8 ± 2.55 | Type of inhibition, CYP3A4/5 (testosterone 6β-hydroxylation) (CYP3A4/5): non-competitive; IC50 (CYP3A4/5): 2.46 µM; Ki (CYP3A4/5): 3.6 ± 0.67 µM
2 | Cc1cc2cccnc2c2ncccc12.F[B-](F)(F)F.O.O=c1c([O-])c(-c2ccccc2)[nH]c2ccccc12.[Cu+2] [complex 2] | 76.5 ± 2.7 | 76.2 ± 2.7 | 70% and 69.7 ± 2.4% | fully non-competitive | 0.92 ± 0.25 | 37.2 | no interaction | 1.071 | 3.12e+06 | −37,070.9 J/mol | -23.04 | 47.06 | 0.321 | 0.859 | 2.17e+07 | −41,881.2 J/mol | -62.71 | −69.86 | 0.0461 | 33 ± 1.13 | CYP2C9 activity remaining, % of the control (CYP2C9; at 100 μM): 7%; Type of inhibition, CYP3A4/5 (testosterone 6β-hydroxylation) (CYP3A4/5): fully non-competitive; CYP3A4/5 activity remaining (testosterone 6β-hydroxylation), % of basal activity (CYP3A4/5; at 100 μM): 1%; IC50 (CYP3A4/5): 4.88 µM; Ki (CYP3A4/5): 3.94 ± 0.6 µM
